These are literature values, as cited in patent US4537898A, “Liquid formulations of dihydropyridines” (priority 1983, dated 1985).

Structures are written as SMILES.

Regarding `COCCOC(=O)C1=C(C)NC(C)=C(C(=O)OC(C)C)C1c1cccc([N+](=O)[O-])c1` (stereo not shown) [nimodipine, Nimodipine], the solubility in water is 0.2 mg per 100 ml.
